# According to patent US7012068B2, “Co-administration of a polysaccharide with a chemotherapeutic agent for the treatment of cancer” (Pro-Pharmaceuticals, Inc., priority 2001, dated 2006):
# Values joined by “and” are separate entries in the source; they are usually repeats but may differ in a detail not shown here. Equal entries are not always repeated. Where two headings read alike, the source gives them in different places.
# What was measured:
# Albino Swiss mice [1] = details: single i.v. LD50 dose of Adriamycin with or without galactomannan, 14 days
# Procedure: Acute systemic toxicity of the anti-tumor drug adriamycin in the presence and absence of mannan was evaluated in Albino Swiss mice. Mice were bred as described Example 1. Experimental procedures followed approved governmental guidelines as described in Example 1.
# A single dose intravenous injection of the adriamycin alone or adriamycin together with galactomannan preparations was provided via the tail vein at a dose of 0.5 mL/mouse at the doses described below in (1)-(3) and observed for clinical signs immediately after injection, and daily for the duration of the study.
# There were a total of 3 groups of 5 animals each. The groups were as follows: 1) 0.9% NaCl only, 2) Adriamycin only (1.1 mg/mL) and Adriamycin (1.1 mg/mL)+galactomannan (7.2mg/mL).
# 0.9% NaCl was used as a diluent. Animals were weighed prior to injection and at the end of the observation period. Animals surviving at the end of the study were sacrificed by carbon dioxide inhalation.
# The ability of galactomannan to reduce the toxicity of LD50 dosed of Adriamycin was measured by presence or absence of mortality in animals injected with the combination of Adriamycin and the particular polysaccharide.
# mice = details: cited from earlier work
# Albino Swiss mice [2] = details: 17 days
# [3] = tested on: COLO 205 human colon tumor; details: for Animals died, Total: over 8 weeks (incl. sacrificed); for Mean survival time: parametric models and stratified Kaplan-Meier estimation
# [4] = 1 week after treatment initiation, q4d × 3, 5-FU 75 mg/kg, GM 120 mg/kg
# [5] = 1 week after treatment initiation, q4d × 3, 5-FU 75 mg/kg, GM 120 mg/kg, 10 mice per group
# [6] = 2 weeks after treatment initiation, q4d × 3, 5-FU 75 mg/kg, GM 120 mg/kg
# [7] = 2 weeks after treatment initiation, q4d × 3, 5-FU 75 mg/kg, GM 120 mg/kg, 10 mice per group
# [8] = 3 weeks after treatment initiation, q4d × 3, 5-FU 75 mg/kg, GM 120 mg/kg
# [9] = 3 weeks after treatment initiation, q4d × 3, 5-FU 75 mg/kg, GM 120 mg/kg, 10 mice per group
# [10] = 4 weeks (28 days) after treatment initiation, q4d × 3, 5-FU 75 mg/kg, GM 120 mg/kg
# [11] = 4 weeks after treatment initiation, q4d × 3, 5-FU 75 mg/kg, GM 120 mg/kg, 10 mice per group
# [12] = 5 weeks (35 days) after treatment initiation, q4d × 3, 5-FU 75 mg/kg, GM 120 mg/kg
# [13] = 5 weeks after treatment initiation, q4d × 3, 5-FU 75 mg/kg, GM 120 mg/kg, 10 mice per group
# [14] = 6 weeks after treatment initiation (incl. sacrificed), q4d × 3, 5-FU 75 mg/kg, GM 120 mg/kg, 10 mice per group
# [15] = 6 weeks after treatment initiation, q4d × 3, 5-FU 75 mg/kg, GM 120 mg/kg
# [16] = 7 weeks after treatment initiation (incl. sacrificed), q4d × 3, 5-FU 75 mg/kg, GM 120 mg/kg, 10 mice per group
# [17] = 7 weeks after treatment initiation, q4d × 3, 5-FU 75 mg/kg, GM 120 mg/kg
# [18] = 8 weeks after treatment initiation (incl. sacrificed), q4d × 3, 5-FU 75 mg/kg, GM 120 mg/kg, 10 mice per group
# [19] = Day 0 after treatment initiation, q4d × 3, 5-FU 75 mg/kg, GM 120 mg/kg
# [20] = Day 3 after treatment initiation, q4d × 3, 5-FU 75 mg/kg, GM 120 mg/kg
# [21] = GM 60 mg/kg q1d × 5, 10 mice per group
# [22] = i.v. q4d × 3, 5-FU 75 mg/kg, GM 120 mg/kg
# [23] = i.v. q4d × 3, 5-FU 75 mg/kg, GM 120 mg/kg, 10 mice per group
# [24] = q4d × 3, 5-FU 75 mg/kg, GM 120 mg/kg, 10 mice per group
# [25] = q4d × 3, 5-FU 75 mg/kg, GM 120 mg/kg
compound,measurement,setting,value
"COc1cccc2c1C(=O)c1c(O)c3c(c(O)c1C2=O)C[C@@](O)(C(=O)CO)C[C@@H]3O[C@H]1C[C@H](N)[C@H](O)[C@H](C)O1 [Adriamycin, doxorubicin]",mortality (mice died / mice in group),Albino Swiss mice [1],Three out of 5 and 3 out of 5
same,mortality (mice died / mice in group),Albino Swiss mice [1]; listed as adriamycin,3/5
same,LD50,"mice; Adriamycin, i.v. in mice, The Merck Index, 12th Edition",21.1 mg/kg
galactomannan [GM],Signs of Toxicity (summary of clinical observations),"Albino Swiss mice [2]; individual male mouse, single i.v. 0.5 mL/mouse: 5-FU 17 mg/mL, GM 4.73 mg/mL, 5-FU 17 mg/mL + GM 9.06 mg/mL",None
same,Median tumor weight,"[3]; 1 week after treatment initiation, GM 60 mg/kg q1d × 5",216 mg
same,Animals died,"[3]; 1 week after treatment initiation, GM 60 mg/kg q1d × 5, 10 mice",1
same,Median tumor weight,[3]; [4],258 mg
same,Animals died,[3]; [5],0
same,Median tumor weight,"[3]; 2 weeks after treatment initiation, GM 60 mg/kg q1d × 5",319 mg
same,Animals died,"[3]; 2 weeks after treatment initiation, GM 60 mg/kg q1d × 5, 10 mice",0
same,Median tumor weight,[3]; [6],320 mg
same,Animals died,[3]; [7],0
same,Median tumor weight,"[3]; 3 weeks after treatment initiation, GM 60 mg/kg q1d × 5",512 mg
same,Animals died,"[3]; 3 weeks after treatment initiation, GM 60 mg/kg q1d × 5, 10 mice",0
same,Median tumor weight,[3]; [8],629 mg
same,Animals died,[3]; [9],0
same,Median tumor weight,[3]; [10],959 mg
same,Median tumor weight,"[3]; 4 weeks after treatment initiation, GM 60 mg/kg q1d × 5",690 mg
same,Animals died,"[3]; 4 weeks after treatment initiation, GM 60 mg/kg q1d × 5, 10 mice",1
same,Animals died,[3]; [11],0
same,Median tumor weight,[3]; [12],1692 mg
same,Median tumor weight,"[3]; 5 weeks after treatment initiation, GM 60 mg/kg q1d × 5",1116 mg
same,Animals died,"[3]; 5 weeks after treatment initiation, GM 60 mg/kg q1d × 5, 10 mice",0
same,Animals died,[3]; [13],0
same,Animals died,[3]; [14],1
same,Median tumor weight,"[3]; 6 weeks after treatment initiation, GM 60 mg/kg q1d × 5",1421 mg
same,Animals died,"[3]; 6 weeks after treatment initiation, GM 60 mg/kg q1d × 5, 10 mice",0
same,Median tumor weight,[3]; [15],1690 mg
same,Animals died,"[3]; 7 weeks after treatment initiation (incl. sacrificed), GM 60 mg/kg q1d × 5, 10 mice",1
same,Animals died,[3]; [16],0
same,Median tumor weight,"[3]; 7 weeks after treatment initiation, GM 60 mg/kg q1d × 5",1152 mg
same,Median tumor weight,[3]; [17],1764 mg
same,Median tumor weight,"[3]; 8 weeks (56 days) after treatment initiation, GM 60 mg/kg q1d × 5",1152 mg
same,Median tumor weight,"[3]; 8 weeks (56 days) after treatment initiation, q4d × 3, 5-FU 75 mg/kg, GM 120 mg/kg",1813 mg
same,Animals died,[3]; [18],1
same,Animals died,"[3]; 8 weeks after treatment initiation, GM 60 mg/kg q1d × 5, 10 mice",0
same,Median tumor weight,"[3]; Day 0 after treatment initiation, GM 60 mg/kg q1d × 5",117 mg
same,Median tumor weight,[3]; [19],100 mg
same,Median tumor weight,"[3]; Day 3 after treatment initiation, GM 60 mg/kg q1d × 5",162 mg
same,Median tumor weight,[3]; [20],162 mg
same,Median days to 2× doubling of tumor weight,[3]; GM 60 mg/kg q1d × 5,20.0 days
same,Animals with small tumors (20% and less) compared to median of untreated after 4-8 weeks of treatment,[3]; [21],0
same,Tumor complete regression after 56 days of treatment,[3]; [21],0
same,Median days to 2× doubling of tumor weight,[3]; [22],15.5 days
same,Animals with small tumors (20% and less) compared to median of untreated after 4-8 weeks of treatment,[3]; [23],1
same,Tumor complete regression after 56 days of treatment,[3]; [23],0
same,"Animals died, Total","[3]; GM 60 mg/kg q1d × 5, 10 mice",3
same,"Animals died, Total",[3]; [24],2
same,Mean survival time,[3]; GM 60 mg/kg q1d × 5,18.1 days
same,Mean survival time,[3]; [25],19.2 days
"O=c1[nH]cc(F)c(=O)[nH]1 [5-FU, 5-fluorouracil, reference compound]",death rate (mice dying / mice in group),Albino Swiss mice [2]; single i.v. 5-FU 420 mg/kg with or without galactomannan,3/5
same,LD50,"mice; 5-FU, single dose in mice, Physician's Desk Reference 48th Edition",340 mg/kg
same,Median tumor weight,[3]; [4],198 mg
same,Animals died,[3]; [5],1
same,Median tumor weight,[3]; [6],245 mg
same,Animals died,[3]; [7],2
same,Median tumor weight,[3]; [8],352 mg
same,Animals died,[3]; [9],0
same,Median tumor weight,[3]; [10],527 mg
same,Animals died,[3]; [11],0
same,deaths out of ten mice within 10 days after the treatment initiation,"[3]; 5-FU 375 mg/kg/dose q4d×3, alone or with galactomannan 120 mg/kg/dose",nine
same,Median tumor weight,[3]; [12],990 mg
same,Animals died,[3]; [13],1
same,Animals died,[3]; [14],0
same,Median tumor weight,[3]; [15],1345 mg
same,Animals died,[3]; [16],0
same,Median tumor weight,[3]; [17],1881 mg
same,Animals died,[3]; [18],1
same,Median tumor weight,[3]; [19],101 mg
same,Median tumor weight,[3]; [20],135 mg
same,Median days to 2× doubling of tumor weight,[3]; [22],23.7 days
same,Animals with small tumors (20% and less) compared to median of untreated after 4-8 weeks of treatment,[3]; [23],1
same,treatment-related (nonspecific) deaths within two weeks,"[3]; out of ten mice, q4d×3, 5-FU 75 mg/kg/dose, galactomannan 120 mg/kg/dose",three
same,"Animals died, Total",[3]; [24],5
same,Mean survival time,[3]; [25],23.7 days
